Where two headings read alike, the source gives them in different places. Where a SMILES comes first, the peptide text is derived from it. The star is where a group is joined. Cbz = O=C(OCc1ccccc1)*
How the values were obtained:
recombinant porcine PREP = molecular target: T1, recombinant porcine PREP (Sus scrofa, UniProt P23687); assay: PREP activity assay (inhibition of proteolytic activity); format: biochemical
T1 construct: made in house

[1] = test system: HEK-293 cells stably expressing GFP-LC3B; assay: Autophagic flux (GFP-LC3B reporter cells)
[2] = test system: ROS production in SH-SY5Y cells; assay: ROS detection assay under oxidative stress; conditions: Homo sapiens, 3 h
[3] = test system: αSyn dimerization in Neuro2A (N2A) cells; assay: αSyn-dimerization assay (split Gaussia luciferase PCA); conditions: for activity at 10 µM: Mus musculus, N2a; for effect on αSyn dimerization (in words): 10 μM, N2A cells
[4] = Suc-Gly-Pro-AMC as substrate, 95% CI in brackets, read-out: IC50 (nM) (95% CI)
[5] = Homo sapiens, HEK293, 24 h, read-out: Autophagy at 10 uM (%)
[6] = Homo sapiens, HEK293, 24 h, read-out: autophagy at 10 μM (%)
[7] = read-out: aSyn dimerization at 10 uM (%)
[8] = read-out: αSyn dimer. at 10 μM (%)
[9] = supplementary CSV, read-out: IC50
[10] = read-out: ROS production, % of the control
[11] = read-out: luminescence signal compared to the DMSO control (αSyn dimerization)
[12] = Homo sapiens, HEK293, 24 h, read-out: GFP signal of the DMSO control (autophagic flux)

T1 sequence (P23687 whole entry): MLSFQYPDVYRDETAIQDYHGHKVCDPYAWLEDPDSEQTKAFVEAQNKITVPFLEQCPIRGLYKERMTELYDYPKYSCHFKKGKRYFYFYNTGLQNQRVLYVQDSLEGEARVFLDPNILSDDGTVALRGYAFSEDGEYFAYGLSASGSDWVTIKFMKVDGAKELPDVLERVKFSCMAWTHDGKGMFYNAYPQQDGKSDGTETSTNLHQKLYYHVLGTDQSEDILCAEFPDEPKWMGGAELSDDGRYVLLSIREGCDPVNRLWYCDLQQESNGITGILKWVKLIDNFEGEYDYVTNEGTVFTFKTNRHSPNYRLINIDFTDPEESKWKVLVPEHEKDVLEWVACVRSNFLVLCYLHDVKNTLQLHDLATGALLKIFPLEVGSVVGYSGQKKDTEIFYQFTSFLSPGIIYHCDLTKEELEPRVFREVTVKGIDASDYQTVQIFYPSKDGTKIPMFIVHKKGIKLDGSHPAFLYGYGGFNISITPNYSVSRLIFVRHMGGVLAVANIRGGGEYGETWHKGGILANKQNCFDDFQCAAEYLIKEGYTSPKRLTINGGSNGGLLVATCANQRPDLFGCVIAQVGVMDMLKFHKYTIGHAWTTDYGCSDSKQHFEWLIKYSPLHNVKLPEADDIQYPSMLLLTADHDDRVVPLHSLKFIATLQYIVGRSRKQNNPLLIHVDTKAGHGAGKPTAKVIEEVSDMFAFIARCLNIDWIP

Row | SMILES | IC50 (recombinant porcine PREP; [4]) [nM] | activity at 10 µM [1, 5] [%] | activity at 10 µM [1, 6] [%] | activity at 10 µM ([2]; read-out: ROS at 10 uM (%)) [%] | activity at 10 µM ([2]; read-out: ROS at 10 μM (%)) [%] | activity at 10 µM [3, 7] [%] | activity at 10 µM [3, 8] [%] | effect on αSyn dimerization (in words) [3] | inhibitory activity (in words) (recombinant porcine PREP) | IC50 (recombinant porcine PREP; [9]) [nM] | activity at 10 µM [2, 10] [%] | activity at 10 µM [3, 11] [%] | GFP signal compared to the DMSO control (in words) ([1]; 10 μM, one-way ANOVA with Dunnett's post-test) | activity at 10 µM [1, 12] [%] | GFP signal compared to the DMSO control (in words) ([1]; 20 nM, autophagy inhibitor control) | IC50 (recombinant porcine PREP; read-out: IC50 value) [nM] | activity at 0.5 µM [1, 12] [%]
1 | C[C@H](NC(=O)CCCc1ccccc1)C(=O)N1CCC[C@H]1C#N [compound 2, reference compound] | 3.3 | 86 | 86 ± 6 | 92 | 92 ± 7 | 105 | 105 ± 14 | – | – | – | – | – | – | – | – | – | –
2 | CC(=O)N[C@@H](CSC(=O)[C@]1([C@@H](O)C(C)C)NC(=O)[C@H](C)[C@@H]1O)C(=O)O [lactacystin, reference compound] | – | – | – | – | – | – | – | significantly increased αSyn dimerization | – | – | – | – | – | – | – | – | –
3 | Cc1nc(CCCCc2ccccc2)oc1N1CCC[C@H]1C#N [compound 16, (S)-1-(4-Methyl-2-(4-phenylbutyl)oxazol-5-yl)pyrrolidine-2-carbonitrile] | – | 89 | 89 ± 6 | – | – | 108 | 108 ± 2 | – | – | – | – | – | – | – | – | – | –
4 | N#C[C@@H]1CCCN1c1oc(CCCc2ccccc2)nc1-c1ccccc1 [compound 10, 4-Phenylbutanoyl-(4-phenyl-2-oxazol-5-yl)-2(S)-cyanopyrrolidine] | – | 104 | 104 ± 6 | 77 | 77 ± 8 | 97 | 97 ± 10 | – | further reduced inhibitory activities | 17400 | 75 | – | – | – | – | – | –
5 | Cc1nc(CCc2c[nH]c3ccccc23)oc1N1CCC[C@H]1C#N [compound 22, (S)-1-(2-(2-(1H-Indol-3-yl)ethyl)-4-methyloxazol-5-yl)pyrrolidine-2-carbonitrile] | 890 | 97 | 97 ± 3 | 82 | 82 ± 11 | 72 | 72 ± 2 | – | – | – | < 88 | ≤ 75 | – | – | – | – | –
6 | CC(C)(C)c1nc(CCCc2ccccc2)oc1N1CCC[C@H]1C#N [compound 9, (S)-1-(4-(tert-Butyl)-2-(3-phenylpropyl)oxazol-5-yl)pyrrolidine-2-carbonitrile] | – | 103 | 103 ± 3 | 86 | 86 ± 10 | 92 | 92 ± 6 | – | further reduced inhibitory activities | 415000 | < 88 | – | – | – | – | – | –
7 | N#Cc1nc(CCCc2ccccc2)oc1N1CCCC1 [compound 27, 2-(3-Phenylpropyl)-5-(pyrrolidin-1-yl)oxazole-4-carbonitrile] | – | 96 | 96 ± 5 | – | – | 88 | 88 ± 6 | comparable effect as KYP-2047 | very weak inhibitors | 75400 | – | – | – | – | – | – | –
8 | CC(C)C[C@@H](C=O)NC(=O)[C@H](CC(C)C)NC(=O)[C@H](CC(C)C)NC(=O)OCc1ccccc1 [MG-132, reference compound] (Cbz-Leu-Leu-Leu-aldehyde) | – | – | – | – | – | – | – | significantly increased αSyn dimerization | – | – | – | – | – | – | – | – | –
9 | Cc1nc(CCOc2ccccc2)oc1N1CCC[C@H]1C#N [compound 17, (S)-1-(4-Methyl-2-(2-phenoxyethyl)oxazol-5-yl)pyrrolidine-2-carbonitrile] | 1160 | 94 | 94 ± 6 | 70 | 70 ± 8 | 120 | 120 ± 8 | – | – | – | 70 | – | – | – | – | – | –
10 | Cc1nc(CCCc2cccs2)oc1N1CCC[C@H]1C#N [compound 21, (S)-1-(4-Methyl-2-(3-(2-thienyl)propyl)oxazol-5-yl)pyrrolidine-2-carbonitrile] | 18 | 72 | 72 ± 3 | 91 | 91 ± 6 | 101 | 101 ± 8 | – | – | – | – | – | significantly decreased the signal | ≤ 88 | – | – | –
11 | CO/C1=C\C(C)=C\[C@@H](C)[C@@H](O)[C@@H](C)C/C(C)=C/C=C/[C@H](OC)[C@@H]([C@@H](C)[C@@H](O)[C@H](C)[C@@]2(O)C[C@@H](O)[C@H](C)[C@@H](C(C)C)O2)OC1=O [bafilomycin A1, Bafilomycin A1, reference compound] | – | – | – | – | – | – | – | – | – | – | – | – | – | – | significant effect | – | –
12 | CSCCc1nc(CCCc2ccccc2)oc1N1CCC[C@H]1C#N [compound 11, (S)-1-(4-(2-(Methylthio)ethyl)-2-(3-phenylpropyl)oxazol-5-yl)pyrrolidine-2-carbonitrile] | 445 | 92 | 92 ± 5 | 101 | 101 ± 8 | 90 | 90 ± 8 | comparable effect as KYP-2047 | – | – | – | – | – | – | – | 156 to 445 | –
13 | Cc1nc(Cc2ccccc2)oc1N1CCC[C@H]1C#N [compound 14, (S)-1-(2-Benzyl-4-methyloxazol-5-yl)pyrrolidine-2-carbonitrile] | 288 | 97 | 97 ± 6 | 84 | 84 ± 4 | 99 | 99 ± 8 | – | – | – | < 88 | – | – | – | – | – | –
14 | c1ccc(CCCc2ncc(-c3ccccc3)o2)cc1 [compound 29, 5-Phenyl-2-(3-phenylpropyl)oxazole] | – | 90 | 90 ± 4 | 93 | 93 ± 11 | 90 | 90 ± 6 | – | strongly reduced inhibitory activities | 91600 | – | – | – | – | – | – | –
15 | N#C[C@@H]1CCCN1c1oc(CCCc2ccccc2)nc1C(=O)C(F)(F)F [compound 12, (S)-1-(2-(3-Phenylpropyl)-4-(2,2,2-trifluoroacetyl)oxazol-5-yl)pyrrolidine-2-carbonitrile] | – | 98 | 98 ± 2 | 81 | 81 ± 10 | 104 | 104 ± 5 | – | strongly reduced inhibitory activity | 209000 | < 88 | – | – | – | – | – | –
16 | N#Cc1nc(CCCc2ccccc2)oc1N [compound 26, 5-Amino-2-(3-phenylpropyl)oxazole-4-carbonitrile] | > 1e+06 | 96 | 96 ± 4 | – | – | 73 | 73 ± 15 | – | – | – | – | ≤ 75 | – | – | – | – | –
17 | Cc1nc(CCC(=O)N2CCCCCC2)oc1N1CCC[C@H]1C#N [compound 24, (S)-1-(2-(3-(Azepan-1-yl)-3-oxopropyl)-4-methyloxazol-5-yl)pyrrolidine-2-carbonitrile] | 654 | 84 | 84 ± 5 | 90 | 90 ± 5 | 117 | 117 ± 9 | – | – | – | – | – | – | ≤ 88 | – | – | –
18 | Cc1oc(CCCc2ccccc2)nc1C(=O)N1CCC[C@H]1C(N)=O [compound 32, (S)-1-(5-Methyl-2-(3-phenylpropyl)oxazole-4-carbonyl)pyrrolidine-2-carboxamide] | > 1e+06 | 98 | 98 ± 3 | – | – | – | – | – | very low inhibitory activities | – | – | – | – | – | – | – | –
19 | Cc1nc(CCCc2ccccc2)oc1N(CC#N)C(=O)C(F)(F)F [compound 5, N-(Cyanomethyl)-2,2,2-trifluoro-N-(4-methyl-2-(3-phenylpropyl)oxazol-5-yl)acetamide] | – | 77 | 77 ± 17 | – | – | 112 | 112 ± 6 | – | very low inhibitory activities | 108000 | – | – | – | ≤ 88 | – | – | –
20 | Cc1oc(CCCc2ccccc2)nc1C(=O)N1CCCC1 [compound 31, (5-Methyl-2-(3-phenylpropyl)oxazol-4-yl)(pyrrolidin-1-yl)methanone] | – | 97 | 97 ± 4 | – | – | 117 | 117 ± 11 | – | very low inhibitory activities | 138000 | – | – | – | – | – | – | –
21 | Cc1nc(CCCc2ccccc2)oc1N1CCCC[C@H]1C#N [compound 4, (S)-1-(4-Methyl-2-(3-phenylpropyl)oxazol-5-yl)piperidine-2-carbonitrile] | > 1e+06 | 97 | 97 ± 2 | – | – | 86 | 86 ± 19 | – | inactive | – | – | 80 to 85 | – | – | – | – | –
22 | CO[C@H]1C[C@@H]2CC[C@@H](C)[C@@](O)(O2)C(=O)C(=O)N2CCCC[C@H]2C(=O)O[C@H]([C@H](C)C[C@@H]2CC[C@@H](O)[C@H](OC)C2)CC(=O)[C@H](C)/C=C(\C)[C@@H](O)[C@@H](OC)C(=O)[C@H](C)C[C@H](C)/C=C/C=C/C=C/1C [rapamycin, reference compound] | – | – | – | – | – | – | – | – | – | – | – | – | – | – | – | – | 65
23 | Cc1nc(CCCc2ccccc2)oc1N1CCC[C@@H]1C#N [compound 3, (R)-1-(4-Methyl-2-(3-phenylpropyl)oxazol-5-yl)pyrrolidine-2-carbonitrile] | – | – | – | 88 | 88 ± 5 | 94 | 94 ± 8 | – | – | – | – | – | – | – | – | – | –

From PMC10258805, “Nonpeptidic Oxazole-Based Prolyl Oligopeptidase Ligands with Disease-Modifying Effects on α-Synuclein Mouse Models of Parkinson’s Disease” (Journal of Medicinal Chemistry, 2023)
